# Reference: patent US20240041827A1, “COMPOSITIONS FOR THE TREATMENT OF FAT RELATED CONDITIONS AND DISORDERS” (priority 2020, published 2024)
# Assay: in vitro
# Description: Human visceral preadipocytes were seeded in 96-well white clear bottom plates at 10,000 cells per well in 100 μl pre-adipocyte medium and incubated overnight at 37° C. 5% CO2. On the following day, adipogenic differentiation was induced by addition of 100 μl/well differentiation medium and incubation continued for 5 days. Adipogenic differentiation was verified by microscopic evaluation, addition of adipored reagents and fluorescent measurement at Ex485 nm/Em572 nm. […] Staurosporine (1 μM) and 0.2% DMSO were used as controls. Plates were incubated at 37° C. 5% CO2 for 2, 6 and 24 hours. Following incubation, cytotoxicity was measured using Cell Titer Glo 2.0 (Promega).
# Test Item RZL-12 (1-300 μM) was prepared on the day of the testing as 150 mM stock solutions in DMSO. The 150 mM represents a 500×stock of the highest desired tested concentration. The 150 mM stock solution was first serially diluted in DMSO to acquire 500×stock solutions for each of the RZL-012 concentrations. The 500×stock solutions were then diluted 1:25 in medium to acquire 20×intermediate stock solutions. Finally, the 20×intermediate stock solutions were further diluted 1:20 in the assay (on the plate) that included seeded cells.
# The 600 μM represents a 20× stock of the highest desired tested concentration. […] Finally, the 20×intermediate stock solutions were further diluted 1:20 in the assay plate that included seeded cells.
# Human visceral pre-adipocytes (HPrAD-vis): HPrAD-vis cells (Lonza cat #PT-5005) were thawed at 37° C. and transferred into 50 ml tubes containing pre-adipocytes PGM-2 growth medium (PBM-2, 10% FBS, 1-glutamine, GA-1000). Cells were centrifuged at 300 g for 10 minutes, the supernatant was removed (Leaving about 1 ml of wash medium for not disrupting the cells) and 2 ml fresh PGM-2 medium was added. After resuspension, cells were counted and seeded in T-75 and T25 flasks at a density of 9,000 cells/cm^2 ([…], 225,000 cells/T25 flask). Medium was changed every 2-3 days until reached confluence of 70%.
# Cells were sub-cultured only once, as soon as they reached 70% confluence. For this purpose, the culture medium of each flask was removed and cells were washed once with 5 ml PBS. The flask was shaken to ensure that the entire surface was covered and the PBS was removed. Then, 3 ml/T75 flask or 1 ml/T25 flask of fresh dedicated Trypsin/EDTA solution (from Lonza) was added and the flasks were incubated for 3-4 minutes at RT until ˜90% cells were detached. The Trypsin/EDTA solution was then neutralized by addition of 6 ml/T75 flask or 3 ml/T25 flask of full PGM-2 growth medium. Cells were collected in 50 ml tubes and centrifuged 10 minutes at 300 g. The supernatant was removed and the cells were resuspended in 3 ml fresh medium. Cells were then counted using a haemacytometer slide after being diluted 1:2 in trypan blue (SIGMA). For sub-culturing, cells were seeded in new T75 flasks at a density of 9,000 cells/cm^2 containing 15 ml fresh growth medium. Alternatively, the cells were seeded in 96-well culture plates at a density of 10,000 cells/well for the cell treatments.
# HPrAD-vis cells: HPrAD-vis passaged once were seeded in 96-well plates as described above (10000cells/well in 100 μl medium) and allowed to settle overnight at 37° C., 5% CO2. Following day, adipogenic differentiation was induced by addition of 100 μl/well differentiation medium and incubated for 5 days. Adipogenic differentiation was verified by microscopic evaluation, addition of adipored reagents and fluorescent measurement at Ex485 nm/Em572 nm. In the morning of day 6, test and reference items were prepared as described above. Cells' medium was replaced with 90 μl fresh differentiation medium. […] Staurosporine (1 μM) and 0.2% DMSO were used as controls. Plates were incubated at 37° C. 5% CO2 for 2, 6 and 24 hours. Following incubation, cell viability was determined using the CellTiter-Gg® viability reagent (Promega) with reading of plates for luminescence. […]
smiles,measurement,value
"C[N+](C)(C)CCCCCn1c2ccc(Br)cc2c2cc(Br)ccc21.[Cl-] [RZL-012, 5-(3,6-dibromo-9H-carbazol-9-yl)-N,N,N-trimethylpentan-1-aminium chloride]",IC50,~30 µM
